Numbers after ± are expanded uncertainties.

For the data set the following is noted: 298.15 K; 101.33 kPa; Liquid.
Take `CC(=O)c1ccccc1` [acetophenone]: the mass density (as a rule, mass per unit of volume) is given as 1023 ± 0.7 kg/m3. To `Clc1ccccc1` [chlorobenzene] belongs 1100.9 ± 0.5 kg/m3; to `Cc1ccccc1` [toluene], 862.27 ± 0.23 kg/m3; to `COc1ccccc1` [anisole], 989.13 ± 0.21 kg/m3.

For the origin of these results see the NIST ThermoML archive (doi:10.1016/j.fluid.2006.09.014).
